# According to ChEMBL document CHEMBL1201862, “PubChem BioAssay data set” (2004):
# The source made the active and inactive calls.
# Assays:
# [1] = P. falciparum Dd2 growth inhibitors, dose response, SYBR Green, dry powder samples (AID 1159566); type: functional, cell-based;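 further: potency for growth inhibition with lower SYBR green DNA signal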
# [2] = P. falciparum Dd2 growth inhibitors, dose response, SYBR Green, cherry-picked samples (AID 1159567); type: functional, cell-based
# [3] = P. falciparum 3D7-ScDHODH growth inhibitors, dose response, SYBR Green, dry powder samples (AID 1159570); type: functional, cell-based;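 further: parasite growth measured after 72 hours of compound exposure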
# [4] = P. falciparum ATP4 D1247Y mutant growth inhibitors, dose response, NITD609-resistant line, SYBR Green, dry powder (AID 1159571); type: functional, cell-based;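 further: parasites synchronized at ring stage by sorbitol before testing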
# [5] = biological target: T1, RNA-binding protein pos-1 (Caenorhabditis elegans, UniProt G5EF15); test: inhibitors of POS-1/mex-3 RNA binding, dose response, biochemical, fluorescence polarization (AID 1964);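 further: purified POS-1 fused to maltose binding protein made in E. coli; potency of compounds blocking POS-1 binding to fluorescent RNA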
# T1 sequence (G5EF15 whole entry): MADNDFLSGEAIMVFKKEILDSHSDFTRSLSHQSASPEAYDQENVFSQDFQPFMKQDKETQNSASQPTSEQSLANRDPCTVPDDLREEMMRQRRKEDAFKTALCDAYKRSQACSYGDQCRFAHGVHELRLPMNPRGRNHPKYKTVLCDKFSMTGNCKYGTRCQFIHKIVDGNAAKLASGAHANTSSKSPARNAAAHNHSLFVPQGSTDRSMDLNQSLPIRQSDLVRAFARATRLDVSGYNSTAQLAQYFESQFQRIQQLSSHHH
# [6] = biological target: T2, Zinc finger protein mex-5 (Caenorhabditis elegans, UniProt Q9XUB2); test: MEX-5/TCR-2 RNA interaction inhibitors, dose response, biochemical, C. elegans, fluorescence polarization (AID 1960)
# T2 sequence (Q9XUB2 whole entry): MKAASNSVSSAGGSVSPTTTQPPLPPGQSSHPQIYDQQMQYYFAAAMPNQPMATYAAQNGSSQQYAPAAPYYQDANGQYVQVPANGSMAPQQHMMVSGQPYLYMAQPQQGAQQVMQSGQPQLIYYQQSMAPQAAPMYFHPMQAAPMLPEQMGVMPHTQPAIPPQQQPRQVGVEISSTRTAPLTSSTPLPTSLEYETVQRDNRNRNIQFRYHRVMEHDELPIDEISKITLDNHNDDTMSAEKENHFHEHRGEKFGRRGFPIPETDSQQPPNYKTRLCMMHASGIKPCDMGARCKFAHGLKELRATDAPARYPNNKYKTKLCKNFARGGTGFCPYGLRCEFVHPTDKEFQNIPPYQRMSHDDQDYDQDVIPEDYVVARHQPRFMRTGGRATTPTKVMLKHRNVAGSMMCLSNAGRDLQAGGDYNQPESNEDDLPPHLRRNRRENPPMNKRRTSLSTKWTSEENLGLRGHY
# [7] = system: HEK293; test: inhibitors of LMP1-driven NF-kB reporter, dose response, cell-based, HEK293, luciferase, cherry-pick (AID 588343); type: functional; settings: Homo sapiens
# [8] = biological target: T3, Histone-lysine N-methyltransferase NSD2 (Homo sapiens, UniProt O96028); type: biochemical
# T3 sequence (O96028 whole entry): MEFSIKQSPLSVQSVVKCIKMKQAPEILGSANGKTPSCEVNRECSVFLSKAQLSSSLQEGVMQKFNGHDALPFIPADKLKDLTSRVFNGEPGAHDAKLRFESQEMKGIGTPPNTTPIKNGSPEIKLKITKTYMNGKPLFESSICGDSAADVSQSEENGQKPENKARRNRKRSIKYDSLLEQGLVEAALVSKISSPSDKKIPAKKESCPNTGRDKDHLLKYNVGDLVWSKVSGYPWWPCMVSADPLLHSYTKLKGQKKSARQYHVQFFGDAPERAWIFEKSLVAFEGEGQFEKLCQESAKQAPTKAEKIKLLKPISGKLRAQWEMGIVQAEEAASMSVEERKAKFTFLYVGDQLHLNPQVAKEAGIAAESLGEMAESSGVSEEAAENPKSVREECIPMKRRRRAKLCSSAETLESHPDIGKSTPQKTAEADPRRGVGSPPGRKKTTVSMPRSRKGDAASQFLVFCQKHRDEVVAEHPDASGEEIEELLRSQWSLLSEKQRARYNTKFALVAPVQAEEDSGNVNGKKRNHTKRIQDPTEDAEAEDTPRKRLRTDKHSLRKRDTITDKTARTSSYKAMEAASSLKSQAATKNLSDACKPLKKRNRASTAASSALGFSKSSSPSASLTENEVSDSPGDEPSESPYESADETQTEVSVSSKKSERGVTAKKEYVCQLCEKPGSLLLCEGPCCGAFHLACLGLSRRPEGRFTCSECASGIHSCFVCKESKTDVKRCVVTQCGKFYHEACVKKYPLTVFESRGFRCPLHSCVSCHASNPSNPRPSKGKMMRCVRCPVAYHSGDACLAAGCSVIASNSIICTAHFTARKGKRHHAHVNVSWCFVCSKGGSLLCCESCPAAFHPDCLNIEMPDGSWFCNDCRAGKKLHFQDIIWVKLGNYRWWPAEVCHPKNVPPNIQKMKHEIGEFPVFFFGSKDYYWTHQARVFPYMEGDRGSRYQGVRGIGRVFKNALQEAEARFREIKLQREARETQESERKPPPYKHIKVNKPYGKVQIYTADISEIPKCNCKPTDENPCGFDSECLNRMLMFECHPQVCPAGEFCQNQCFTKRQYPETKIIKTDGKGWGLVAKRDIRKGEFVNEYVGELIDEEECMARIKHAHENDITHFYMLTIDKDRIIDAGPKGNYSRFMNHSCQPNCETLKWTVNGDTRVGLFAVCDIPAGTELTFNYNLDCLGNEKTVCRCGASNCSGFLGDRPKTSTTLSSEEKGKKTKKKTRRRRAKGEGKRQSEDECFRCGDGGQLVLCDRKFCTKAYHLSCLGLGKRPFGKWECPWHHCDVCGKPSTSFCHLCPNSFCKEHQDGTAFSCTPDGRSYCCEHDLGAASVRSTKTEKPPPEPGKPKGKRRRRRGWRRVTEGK
# [9] = Luminescence Cell-Based Dose Response HTS to Identify Inhibitors of 5'UTR Stem-Loop Driven Prion Protein mRNA Translation in H4 Neuroglioblastoma Cells. [Related pubchem assays: 1827 (Project Summary), 1813 (Primary HTS)]; type: functional
# [10] = inhibitors of SNCA 5'UTR-driven reporter translation, confirmation, H4 neuroglioma cells, luminescence (AID 1988); type: functional, cell-based
# [11] = biological target: Large T antigen (Simian virus 40, UniProt P03070); type: functional, Betapolyomavirus macacae;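 further: Confirmatory-stage PubChem screen for compounds that inhibit SV40 T antigen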
# Sequence of Large T antigen (P03070 whole entry, the tested form may be a part): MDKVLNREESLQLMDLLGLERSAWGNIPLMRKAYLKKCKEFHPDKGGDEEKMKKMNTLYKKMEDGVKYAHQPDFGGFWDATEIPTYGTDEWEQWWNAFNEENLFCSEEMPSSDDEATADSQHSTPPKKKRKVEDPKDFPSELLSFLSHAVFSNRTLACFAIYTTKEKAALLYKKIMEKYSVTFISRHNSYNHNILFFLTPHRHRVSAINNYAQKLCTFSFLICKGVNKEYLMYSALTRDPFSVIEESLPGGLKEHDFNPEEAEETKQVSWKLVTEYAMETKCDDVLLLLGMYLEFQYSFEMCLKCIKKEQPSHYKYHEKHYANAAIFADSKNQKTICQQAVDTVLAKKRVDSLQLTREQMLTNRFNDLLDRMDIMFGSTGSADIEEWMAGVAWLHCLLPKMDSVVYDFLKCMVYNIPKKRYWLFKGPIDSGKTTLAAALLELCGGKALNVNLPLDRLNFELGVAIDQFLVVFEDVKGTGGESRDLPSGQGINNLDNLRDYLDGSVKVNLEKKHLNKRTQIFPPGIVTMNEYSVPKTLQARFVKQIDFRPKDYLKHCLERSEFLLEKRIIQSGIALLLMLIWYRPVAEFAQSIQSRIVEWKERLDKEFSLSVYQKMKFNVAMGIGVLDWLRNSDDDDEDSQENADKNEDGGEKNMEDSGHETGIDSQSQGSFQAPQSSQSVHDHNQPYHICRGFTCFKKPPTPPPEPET
# [12] = inhibitors of HIV Env-driven cell fusion, dose response, cherry-pick (AID 652057); type: functional, cell-based
# [13] = inhibitors of clade B AD8 Env fusion, dose response, cell-based, cherry-pick (AID 652062); type: functional;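 further: luciferase signal from cell-cell fusion driven by HIV-1 clade B AD8 Env; potency is for inhibitors of fusion seen as a drop in luminescence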
# [14] = NIH-3T3 fibroblast cytotoxicity, dose response, cytotoxicity control, cell-based, fluorescence, Alamar Blue, secondary assay (AID 2327); type: functional;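 further: NIH-3T3 mouse fibroblasts cultured with fluconazole at 8 µg/mL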
# [15] = biological target: Heat shock protein HSP 90-alpha (Homo sapiens, UniProt P07900); type: functional, organism-based
# [16] = system: INS1; test: beta cell apoptosis inhibitors, cytokine rescue, dose response, luminescence, retest (AID 449756); type: functional, cell-based; settings: Rattus norvegicus;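 further: cell death triggered by IL-1 beta plus TNF-alpha plus IFN-gamma mixture; protective hits raise ATP signal compared with cytokine alone wells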
# [17] = LGR2 antagonists, dose response, cell-based, HEK293, CRE-luciferase reporter, cherry pick, set 2 (AID 743343); type: functional;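 further: transfected cells were stimulated with diluted bursicon conditioned medium after compound addition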
# [18] = biological target: T4, Heat shock factor protein 1 (Mus musculus, UniProt P38532); test: HSF1 potentiators in luciferase reporter cells, confirmation, cell-based, NIH3T3, luminescence, dose retest (AID 435004); type: functional;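 further: stress induced by proteasome inhibitor MG132 added 30 min after compound; luciferase reporter driven by HSF1 response element in NIH3T3 cells; actives raise luminescence as potentiators of the MG132 stress response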
# T4 sequence (P38532 whole entry): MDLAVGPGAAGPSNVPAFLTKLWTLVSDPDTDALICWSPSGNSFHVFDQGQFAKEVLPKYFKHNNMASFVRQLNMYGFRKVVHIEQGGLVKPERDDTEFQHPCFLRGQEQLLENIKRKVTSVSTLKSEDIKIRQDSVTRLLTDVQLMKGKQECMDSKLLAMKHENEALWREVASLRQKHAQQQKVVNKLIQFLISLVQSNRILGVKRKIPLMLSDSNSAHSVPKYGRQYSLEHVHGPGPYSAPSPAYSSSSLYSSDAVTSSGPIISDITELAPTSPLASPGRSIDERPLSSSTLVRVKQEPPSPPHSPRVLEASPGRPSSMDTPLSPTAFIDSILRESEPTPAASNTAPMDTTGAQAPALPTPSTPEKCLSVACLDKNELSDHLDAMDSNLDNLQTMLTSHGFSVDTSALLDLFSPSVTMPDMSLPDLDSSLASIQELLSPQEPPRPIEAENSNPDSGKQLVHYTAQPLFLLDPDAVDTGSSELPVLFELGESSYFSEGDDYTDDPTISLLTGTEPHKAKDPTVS
# [19] = biological target: T4, Heat shock factor protein 1; test: inhibition of MG132-induced HSE-luciferase signal, confirmation, cell-based, NIH3T3, luminescence, dose retest (AID 2382); type: functional;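 further: NIH3T3 fibroblasts with HSF1-driven luciferase reporter stressed by proteasome inhibitor MG132; luminescence from HSF1-driven luciferase expression after 8 hours of MG132 stress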
# [20] = biological target: T5, Rac GTPase-activating protein 1 (Homo sapiens, UniProt Q9H0H5); test: MgcRacGAP GTPase-activating activity inhibitors, confirmation, biochemical, ADP Hunter fluorescence, primary and confirmatory (AID 624330); type: functional
# T5 sequence (Q9H0H5 whole entry): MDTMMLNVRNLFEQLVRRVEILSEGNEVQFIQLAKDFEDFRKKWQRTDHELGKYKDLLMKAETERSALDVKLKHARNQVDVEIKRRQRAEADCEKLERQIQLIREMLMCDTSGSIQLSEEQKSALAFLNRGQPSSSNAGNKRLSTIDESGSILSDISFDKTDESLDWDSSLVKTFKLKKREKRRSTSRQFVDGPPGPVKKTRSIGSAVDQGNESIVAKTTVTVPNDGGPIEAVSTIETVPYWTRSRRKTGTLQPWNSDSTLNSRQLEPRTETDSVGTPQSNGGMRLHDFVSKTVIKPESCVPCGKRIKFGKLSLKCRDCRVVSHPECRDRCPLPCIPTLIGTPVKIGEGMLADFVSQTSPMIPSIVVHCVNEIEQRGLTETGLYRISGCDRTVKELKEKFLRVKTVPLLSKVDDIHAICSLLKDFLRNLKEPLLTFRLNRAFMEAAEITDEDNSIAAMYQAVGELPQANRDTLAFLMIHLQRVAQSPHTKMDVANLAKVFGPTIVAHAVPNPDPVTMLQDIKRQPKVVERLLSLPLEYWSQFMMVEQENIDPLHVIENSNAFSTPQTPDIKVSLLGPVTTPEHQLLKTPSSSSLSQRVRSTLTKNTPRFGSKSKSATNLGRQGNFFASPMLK
compound,measurement,setting,value
O=C(C1CCCC1)N1CC2(C1)[C@@H](c1ccccc1)[C@H](CO)N2Cc1ccc(Cl)cc1,AC50,[1],1.98 µM (active)
same,AC50,[2],1.49 µM (active)
same,AC50,[3],3.13 µM (active)
same,AC50,[4],3.62 µM (active)
COc1ccc(OC)c(C2Nc3c(Cl)ccc(C(=O)O)c3C3C=CCC32)c1 (stereo not drawn),EC50,[5],> 300 µM (not active)
same,EC50,[6],40.7 µM (active)
CN(C1CCCCC1)S(=O)(=O)c1ccc(C(=O)N2CCN(c3nc4ccccc4s3)CC2)cc1,AC50,[7],2.85 µM (active)
Cc1nc(C)c(C(=O)Nc2ncc([N+](=O)[O-])s2)o1,AC50,[8],> 20 µM (inactive)
same,EC50,[9],10.2 µM (inconclusive)
same,EC50,[10],8.92 µM (inconclusive)
same,AC50,[7],3.12 µM (active)
COc1ccc(/C=C2/C(=O)N(Cc3ccco3)C(=O)N(C(C)C)C2=O)cc1,IC50,[11],80.6 µM (active)
CC(C)COC(=O)N(C)C[C@H]1OCc2ccccc2-c2c(n(C)c3ccccc23)C(=O)N([C@H](C)CO)C[C@@H]1C,AC50,[12],< 0.26 µM (active)
same,AC50,[13],0.304 µM (active)
O=c1cc(CN2CCN(Cc3ccccc3)CC2)c2ccc(O)c(O)c2o1,IC50,[11],4.91 µM (active)
same,EC50,[14],> 160 µM (inactive)
COc1ccccc1S(=O)(=O)N(C)C[C@H]1Oc2cc(/C=C/c3ccccc3)ccc2S(=O)(=O)N([C@H](C)CO)C[C@@H]1C,AC50,[1],1.9 µM (active)
same,AC50,[2],2.43 µM (active)
same,AC50,[3],2.34 µM (active)
same,AC50,[4],1.78 µM (active)
N#Cc1c2ccc([N+](=O)[O-])cc2[n+]([O-])n1-c1ccccc1,AC50,[15],2.86 µM (active)
same,AC50,[16],3.15 µM (active)
O=C(CC1CS(=O)(=O)CC1CC(=O)Nc1ccc2c(c1)OCCO2)Nc1ccc2c(c1)OCCO2 (stereo not drawn),AC50,[17],45.8 µM (active)
CCN(CC)CCCn1c(=S)[nH]c2ncccc2c1=O,AC50,[8],9.8 µM (active)
same,EC50,[18],> 260 µM (inactive)
CCc1nn2cc(-c3ccccc3)nc2s1,AC50,[7],2.06 µM (active)
COc1ccc2c3c([nH]c2c1)[C@H](CO)N(Cc1cccc(F)c1)CC31CCN(Cc2ccccn2)CC1,AC50,[1],0.906 µM (active)
same,AC50,[2],1.07 µM (active)
same,AC50,[3],0.902 µM (active)
same,AC50,[4],0.922 µM (active)
CN1C(=O)C(=C(Nc2ccc(F)cc2)c2ccccc2Cl)C(=O)N(C)C1=O,AC50,[15],3.17 µM (active)
Cc1cc(C)nc(NS(=O)(=O)c2ccc(-n3cccc3)cc2)n1,AC50,[8],> 20 µM (inactive)
same,EC50,[19],> 195 µM (not active)
O=C(N/N=C/c1ccc(O)c(O)c1)c1cccc(S(=O)(=O)N2CCCC2)c1,IC50,[11],4.72 µM (active)
CN(c1ccc(O)cc1)c1ccc([N+](=O)[O-])c2nonc12,AC50,[8],> 20 µM (inactive)
same,IC50,[20],135 µM (active)
Cc1ccc(/C=N/Nc2[nH]cnc3ncnc2-3)cc1,EC50,[5],> 300 µM (not active)
same,EC50,[6],> 300 µM (inconclusive)
CC(C)SC1=NSC2=NC(=O)/C(=C\c3c[nH]c4ccccc34)C(=N)N21,EC50,[5],18.6 µM (active)
same,EC50,[6],> 300 µM (not active)
CCn1nnc2cc(C(=O)NCCc3ccccc3F)ccc21,EC50,[9],4.08 µM (active)
same,EC50,[10],5.03 µM (active)
same,AC50,[7],3.14 µM (active)
